Assay results from patent US10351522B2, “Sulfonamide derivative and pharmaceutically acceptable acid addition salt thereof” (UNIVERSITY OF TSUKUBA, priority 2015, dated 2019).
Read-outs that look alike come from different tables or passages of the source.

Legend:
human OX1R = biological target: T1, human OX1R (Homo sapiens, UniProt O43613); test: Agonist activity against OX1R: intracellular calcium (Fura-2AM, FDSS7000) in CHOOX1R cells; type: cell-based; conditions: for Emax at 0.1 µM / Emax at 1 µM / Emax at 10 µM: read-out: Response (%) OX1R
T1 construct: expressed in transfected cells; host or cells: CHO (Chinese hamster ovary) cells, line CHOOX1R, co-expressing NFAT-luciferase
T1 sequence (O43613 1-425): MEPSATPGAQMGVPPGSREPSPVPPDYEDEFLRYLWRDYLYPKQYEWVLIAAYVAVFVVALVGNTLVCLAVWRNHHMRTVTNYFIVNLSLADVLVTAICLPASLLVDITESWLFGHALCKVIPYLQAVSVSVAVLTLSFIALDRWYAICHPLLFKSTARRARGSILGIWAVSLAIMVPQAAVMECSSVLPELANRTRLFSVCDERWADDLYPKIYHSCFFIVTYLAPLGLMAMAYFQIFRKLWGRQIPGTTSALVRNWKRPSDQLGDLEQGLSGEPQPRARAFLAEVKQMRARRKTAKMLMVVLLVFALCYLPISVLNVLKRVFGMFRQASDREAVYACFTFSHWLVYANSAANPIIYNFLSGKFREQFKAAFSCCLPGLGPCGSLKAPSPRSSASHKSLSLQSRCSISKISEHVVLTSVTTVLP
Procedure, shortened: (§1)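 CHO cells stably expressing human OX1R or OX2R (plus NFAT-luciferase) were loaded with 5 μM Fura-2AM for 60 min, then given compound at 10^−7 to 10^−5 M final (1% DMSO). Calcium change read as 340/380 nm excitation fluorescence ratio; response expressed as % of orexin-A maximal activity at 10, 1.0 and 0.1 μM.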

human OX2R = biological target: T2, human OX2R (Homo sapiens, UniProt O43614); test: Agonist activity against OX2R: intracellular calcium (Fura-2AM, FDSS7000) in CHOOX2R cells; type: cell-based; conditions: relative to orexin-A as full agonist (100%)
T2 construct: expressed in transfected cells; host or cells: CHO (Chinese hamster ovary) cells, line CHOOX2R, co-expressing NFAT-luciferase
T2 sequence (O43614 1-444): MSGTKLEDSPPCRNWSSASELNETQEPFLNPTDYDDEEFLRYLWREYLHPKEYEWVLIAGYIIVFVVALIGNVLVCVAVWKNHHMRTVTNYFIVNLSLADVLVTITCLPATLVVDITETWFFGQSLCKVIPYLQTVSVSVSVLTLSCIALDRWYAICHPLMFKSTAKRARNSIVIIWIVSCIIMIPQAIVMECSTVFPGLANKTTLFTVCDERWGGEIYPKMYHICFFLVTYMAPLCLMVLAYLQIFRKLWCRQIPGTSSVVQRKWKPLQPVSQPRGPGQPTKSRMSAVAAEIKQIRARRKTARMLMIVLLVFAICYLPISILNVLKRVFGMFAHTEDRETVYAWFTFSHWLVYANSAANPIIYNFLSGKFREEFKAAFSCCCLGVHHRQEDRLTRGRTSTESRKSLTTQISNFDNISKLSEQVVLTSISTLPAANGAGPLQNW
Procedure, shortened: as §1

[1] = 0.1 μM test compound, relative to orexin-A as full agonist (100%)
[2] = 1.0 μM test compound, relative to orexin-A as full agonist (100%)
[3] = 10 μM test compound, relative to orexin-A as full agonist (100%)
[4] = test compound 0.1 μM, relative to orexin-A as full agonist (100%)
[5] = test compound 1.0 μM, relative to orexin-A as full agonist (100%)
[6] = test compound 10 μM, relative to orexin-A as full agonist (100%)

SMILES | Response (%) OX1R (human OX1R; [1]) | Response (%) OX1R (human OX1R; [2]) | Response (%) OX1R (human OX1R; [3]) | Response (%) OX2R (human OX2R; 0.1 μM test compound) | Response (%) OX2R (human OX2R; 1.0 μM test compound) | Response (%) OX2R (human OX2R; 10 μM test compound) | Response (%) OX2R (human OX2R; test compound 0.1 μM) | Response (%) OX2R (human OX2R; test compound 1.0 μM) | Response (%) OX2R (human OX2R; test compound 10 μM) | other results
COc1ccc(-c2cccc(C(=O)N(C)C)c2)cc1S(=O)(=O)Nc1cccc(NC(=N)Nc2cccc(C)c2)c1 [Example 78] | <5% | <5% | 14% | 23% | 89% | 86% |  |  |  | 
COc1ccc(-c2cccc(C(=O)N(C)C)c2)cc1S(=O)(=O)Nc1cccc(Nc2c(OC)c(=O)c2=O)c1 [Example 79, 4′-methoxy-3′-(N-(3-((2-methoxy-3,4-dioxocyclobut-1-en-1-yl)amino)phenyl)sulfamoyl)-N,N-dimethyl-[1,1′-biphenyl]-3-carboxamide] |  |  |  | <5% | <5% | 51% |  |  |  | Emax at 0.1 µM (human OX1R; [1]): < 5%; Emax at 1 µM (human OX1R; [2]): < 5%; Emax at 10 µM (human OX1R; [3]): < 5%
COc1ccc(-c2cccc(C(=O)N(C)C)c2)cc1S(=O)(=O)Nc1cccc(NC(=O)OCc2ccccc2)c1 [Example 73] | 6% | 6% | <5% | 25% | 49% | 11% |  |  |  | 
COc1ccc(-c2cccc(C(=O)N(C)C)c2)cc1S(=O)(=O)Nc1cccc(NC(=O)c2ccc(N(C)C)cc2)c1 [Example 8] | 9% | 8% | 27% | 8% | 13% | 61% |  |  |  | 
COc1ccc(-c2cccc(C(=O)N(C)C)c2)cc1S(=O)(=O)Nc1cccc(NCc2ccccc2Br)c1 [Example 28] | <5% | <5% | <5% | 6% | 54% | 81% |  |  |  | 
COc1ccc(C(=O)NCc2cccnc2)cc1S(=O)(=O)Nc1cccc(NC(=O)Nc2ccc(N(C)C)cc2)c1 [Example 109] |  |  |  |  |  |  | 7% | 6% | 39% | Response (%) OX1R (human OX1R; [4]): 8%; Response (%) OX1R (human OX1R; [5]): 9%; Response (%) OX1R (human OX1R; [6]): 7%
COc1ccc(-c2cccc(C(=O)N(C)C)c2)cc1S(=O)(=O)Nc1cccc(NS(=O)(=O)N(C)C)c1 [Example 87] |  |  |  |  |  |  | <5% | 10% | 56% | Response (%) OX1R (human OX1R; [4]): <5%; Response (%) OX1R (human OX1R; [5]): <5%; Response (%) OX1R (human OX1R; [6]): <5%
COc1ccc(-c2cccc(C(=O)N(C)C)c2)cc1S(=O)(=O)Nc1cccc(NC(=O)Nc2ccc([N+](=O)[O-])cc2)c1 [Example 61] | <5% | <5% | 7% | 24% | 105% | 99% |  |  |  | 
COc1ccc(C(=O)NCc2ccccc2)cc1S(=O)(=O)Nc1cccc(NC(=O)Nc2cccc(N(C)C)c2)c1 [Example 100, N-benzyl-3-(N-(3-(3-(3-(dimethylamino)phenyl)ureido)phenyl)sulfamoyl)-4-methoxybenzamide] |  |  |  |  |  |  | <5% | 7% | 49% | Emax at 0.1 µM (human OX1R; [4]): < 5%; Emax at 1 µM (human OX1R; [5]): < 5%; Emax at 10 µM (human OX1R; [6]): < 5%
COc1ccc(-c2cccc(C(=O)N(C)C)c2)cc1S(=O)(=O)Nc1cccc(NCc2cccc(C)c2)c1 [Example 25] | <5% | <5% | 32% | 21% | 88% | 97% |  |  |  | 
COc1ccc(-c2cccc(C(=O)N(C)C)c2)cc1S(=O)(=O)Nc1cccc(NC(=O)Nc2ccc(NC(=N)N)cc2)c1 [Example 60] | <5% | <5% | <5% | <5% | <5% | 31% |  |  |  | 
COc1ccc(-c2cccc(C(=O)N(C)C)c2)cc1S(=O)(=O)Nc1ccc(NC(=O)Nc2cccc(N(C)C)c2)cc1 [Example 122] |  |  |  |  |  |  | 7% | 7% | 10% | Response (%) OX1R (human OX1R; [4]): <5%; Response (%) OX1R (human OX1R; [5]): <5%; Response (%) OX1R (human OX1R; [6]): <5%
COc1ccc(-c2cccc(C(=O)N(C)C)c2)cc1S(=O)(=O)Nc1cccc(NC(=O)Nc2cccnc2)c1 [Example 69] | 6% | 6% | 6% | 7% | 90% | 127% |  |  |  | 
COc1ccc(-c2cccc(C(=O)N(C)C)c2)cc1S(=O)(=O)Nc1cccc(NC(=O)Nc2cccc(N(C)C)c2)c1OC [Example 123, 3′-(N-(3-(3-(3-(dimethylamino)phenyl)ureido)-2-methoxyphenyl)sulfamoyl)-4′-methoxy-N,N-dimethyl-[1,1′-biphenyl]-3-carboxamide] |  |  |  |  |  |  | 63% | 111% | 111% | Emax at 0.1 µM (human OX1R): < 5%; Emax at 1 µM (human OX1R): 6%; Emax at 10 µM (human OX1R): < 5%
COc1ccc(-c2cccc(C(=O)N(C)C)c2)cc1S(=O)(=O)Nc1cccc(NC(=O)Nc2ccc(C)cc2)c1 [Example 56] | <5% | <5% | 19% | 95% | 96% | 82% |  |  |  | 
COc1ccc(-c2cccc(C(=O)N(C)C)c2)cc1S(=O)(=O)Nc1cccc(N2CCN(c3ccccc3N(C)C)C2=O)c1 [Example 129] |  |  |  |  |  |  | 85% | 93% | 92% | Response (%) OX1R (human OX1R; [4]): <5%; Response (%) OX1R (human OX1R; [5]): 41%; Response (%) OX1R (human OX1R; [6]): 81%
COC(=O)c1cccc(NC(=O)Nc2cccc(NS(=O)(=O)c3cc(-c4cccc(C(=O)N(C)C)c4)ccc3OC)c2)c1 [Example 45] | <5% | <5% | <5% | 82% | 97% | 100% |  |  |  | 
